The text below walks through data of ChEMBL document CHEMBL5344429, “1,3-Substituted β-Carboline Derivatives as Potent Chemotherapy for the Treatment of Cystic Echinococcosis” (J Med Chem, 2023).

What is called LC50 is the concentration that kills 50% of the test population. A word on the AUC(0-inf): it is the area under the concentration-time curve extrapolated to infinity. By bioavailability is commonly meant the share of a dose that reaches the circulation, judged against a reference dose that is usually intravenous. A high value points to good availability. What is called Cmax is the peak of the concentration-time curve.

In series [1] the test system is Echinococcus granulosus. As to the kind of experiment: Inhibition of Echinococcus granulosus. It counts as functional.
Series [2] has as its system Echinococcus granulosus. As to the kind of experiment: Antiparasitic acitivity against Echinococcus granulosus infected at 25 mg/kg. Type of series: functional.
Series [3] in a line: AUC (0 to infinity) in Wistar rat at 5 mg/kg, iv by HPLC analysis. It counts as ADME, organism-based. On the set-up: dose 5 mg/kg, route iv. The conditions noted are these: in vivo.
The nature of series [4]: Oral bioavailability in Wistar rat at 50 mg/kg, […] by HPLC analysis. Type of series: ADME, organism-based. The conditions noted are these: in vivo.
In series [5] the test system is Echinococcus granulosus. Nature of the series: Parasiticidal activity against Echinococcus granulosus protoscolices assessed as change in ultrastructure at 5 uM incubated for 4 days by scanning electron microscopy. It counts as functional, organism-based. To be noted: time 4.0 day.
Series [6] concerns Echinococcus granulosus. As to the kind of experiment: Parasiticidal activity against Echinococcus granulosus protoscolices assessed as partial vacuolar change at 5 uM incubated for 4 days by scanning electron microscopy analysis. It counts as functional, organism-based. The conditions noted are these: time 4.0 day.
A short description of series [7]: Cmax in Wistar rat at 5 mg/kg, iv by HPLC analysis. Type of series: ADME, organism-based. On the set-up: dose 5 mg/kg, route iv. To be noted: in vivo.
In series [8] the test system is Echinococcus granulosus. Nature of the series: Parasiticidal activity against Echinococcus granulosus assessed as collapse of germinal layers at 100 uM incubated for 4 days by scanning electron microscopy. Type of series: functional, organism-based. The conditions noted are these: time 4.0 day.
Series [9] deals with Echinococcus granulosus. Nature of the series: Parasiticidal activity against Echinococcus granulosus protoscolices assessed as loss of hooks at 5 uM incubated for 4 days by scanning electron microscopy. Type of series: functional, organism-based. To be noted: time 4.0 day.
Series [10] deals with Echinococcus granulosus. Nature of the series: Parasiticidal activity against Echinococcus granulosus protoscolices assessed as degeneration of outer skin at 5 uM incubated for 4 days by scanning electron microscopy. It counts as functional, organism-based. To be noted: time 4.0 day.
Series [11] relates to Echinococcus granulosus. Nature of the series: Parasiticidal activity against Echinococcus granulosus protoscolices assessed as death rate at 0.5 uM incubated for 4 days by eosin exclusion test. It counts as functional. To be noted: time 4 day.
Series [12] deals with Echinococcus granulosus. As to the kind of experiment: Parasiticidal activity against Echinococcus granulosus protoscolices assessed as appearance of blurred marginal structure at 5 uM incubated for 4 days by scanning electron microscopy analysis. The conditions noted are these: time 4.0 day. Type of series: functional, organism-based.
Series [13] concerns Echinococcus granulosus. Nature of the series: Parasiticidal activity against Echinococcus granulosus protoscolices assessed as loss of suckers at 5 uM incubated for 4 days by scanning electron microscopy. It counts as functional. The conditions noted are these: time 4 day.
Series [14] relates to Echinococcus granulosus. As to the kind of experiment: Parasiticidal activity against Echinococcus granulosus protoscolices […] by eosin exclusion test. Type of series: functional. To be noted: 1152 h, time 48 day.
Series [15] deals with Echinococcus granulosus. As to the kind of experiment: Parasiticidal activity against Echinococcus granulosus cyst assessed as formation of dense aggregates at 100 uM incubated for 4 days by scanning electron microscopy. It counts as functional, organism-based. The conditions noted are these: time 4.0 day.
Series [16] has as its system Echinococcus granulosus. As to the kind of experiment: Parasiticidal activity against Echinococcus granulosus protoscolices assessed as appearance of rostellum hooks fall off at 5 uM incubated for 4 days by scanning electron microscopy analysis. Type of series: functional, organism-based. The conditions noted are these: time 4.0 day.
Series [17] deals with Echinococcus granulosus. Nature of the series: Parasiticidal activity against Echinococcus granulosus protoscolices assessed as appearance of body shrank at 5 uM incubated for 4 days by scanning electron microscopy analysis. Type of series: functional, organism-based. The conditions noted are these: time 4.0 day.
The subject of series [18] is Echinococcus granulosus. As to the kind of experiment: Parasiticidal activity against Echinococcus granulosus protoscolices assessed as increase in death rate at 5 uM incubated for 4 days by darker staining-based light microscopy. It counts as functional, organism-based. To be noted: time 4.0 day.
In series [19] the test system is Echinococcus granulosus. As to the kind of experiment: Potency index, ratio of Harmine LC50 to test compound LC50 for Parasiticidal activity against Echinococcus granulosus protoscolices. It counts as functional.
In series [20] the test system is Echinococcus granulosus. As to the kind of experiment: Parasiticidal activity against Echinococcus granulosus protoscolices assessed as lethal effect incubated for 4 days by eosin exclusion test. Type of series: functional, organism-based. To be noted: dose 0.5-5 µM, time 4.0 day.
The test system of series [21] is Echinococcus granulosus. As to the kind of experiment: Parasiticidal activity against Echinococcus granulosus cyst assessed as seperation from cuticle at 100 uM incubated for 4 days by scanning electron microscopy. To be noted: time 4.0 day. Type of series: functional, organism-based.
Series [22] has as its system Echinococcus granulosus. Nature of the series: Parasiticidal activity against Echinococcus granulosus protoscolices assessed as lethal effect at 0.5 to 5 uM by eosin exclusion test. Type of series: functional, organism-based. The conditions noted are these: dose 0.5-5 µM, TDE = time-dependent effect.
For series [23], the system named is Echinococcus granulosus. Nature of the series: Parasiticidal activity against Echinococcus granulosus protoscolices assessed as death rate at 5 uM incubated for 4 days by eosin exclusion test. It counts as functional. The conditions noted are these: time 4 day.

Calls of active or inactive are those of the source. The calls are words filed in the database; no cut-off is given here.

The molecule `CCCCn1c2ccccc2c2ccnc(-c3ccccc3Cl)c21` gave an LC50 in the series on Echinococcus granulosus [1] of 41.6 µM. Besides, the Activity with Echinococcus granulosus [2] amounted to 32.91%.

On to `Cc1nc(NC(=O)c2ccc(CN3CCC(N4CCCCC4)CC3)cc2)cc2c1[nH]c1ccccc12`, for which, in series [3], the AUC(0-inf) came to 1410 ng·h/mL. The molecule further returned a bioavailability in series [4] of 15.5%. Besides, the result in the series with Echinococcus granulosus [5], with Echinococcus granulosus [6], with Echinococcus granulosus [8], with Echinococcus granulosus [9], with Echinococcus granulosus [10] and in the series with Echinococcus granulosus [12] was Active. Further, the result in the series on Echinococcus granulosus [15], in the series on Echinococcus granulosus [16], in the series on Echinococcus granulosus [17], in the series on Echinococcus granulosus [18] and in the series on Echinococcus granulosus [21] was Active. In [7], this molecule gave a maximum concentration (Cmax) of 1120 ng/mL. For the same molecule, the Activity in the series on Echinococcus granulosus [11] was more than 50%; in the series on Echinococcus granulosus [13], 59.4%; in the series on Echinococcus granulosus [20], “Dose-Dependent Effect”; in the series with Echinococcus granulosus [22] it was “Tde”; in the series with Echinococcus granulosus [23], more than 90%. The same molecule yielded an LC50 with Echinococcus granulosus [14] of 2.39 µM. For the same molecule, the RatioLC50 in the series with Echinococcus granulosus [19] was 84.
